In patent publication US9012182B2, “Method for producing purine nucleosides and nucleotides by fermentation using bacterium belonging to the genus Bacillus or Escherichia” (Ajinomoto Co., Inc., priority 2004, dated 2015):

What was measured:
Type in all cases: cell-based
[1] = tested on: E. coli strain TG1 (pMW118); assay: Growth on M9 glucose minimal agar with purine base analogues, vector control strain; conditions: 44 h at 37° C. Further: key: +: good growth; −: no growth.
Procedure: (§1) The pYDHL1 plasmid and the vector were used to transform the E. coli strain TG1 (Amersham Pharmacia Biotech) via standard techniques. Transformants were selected on L-broth agar plates with 100 μg/ml ampicillin. Thus, the E. coli strains TG1 (pYDHL1) and TG1 (pMW118) were obtained. Then the ability of these strains to grow in the presence of purine base analogues was determined on M9 glucose minimal agar plates containing graded concentrations of an inhibitor. The plates were spotted with 10^5 to 10^6 cells from an overnight culture grown in a minimal medium (supplemented with 100 μg/ml of ampicillin). The growth was estimated after 44 h incubation at 37° C.

[2] = tested on: E. coli strain TG1 (pYDHL1); assay: Growth on M9 glucose minimal agar with purine base analogues, ydhL-amplified strain; conditions: 44 h at 37° C. Further: key: +: good growth; −: no growth.
Procedure: as §1

[3] = tested on: B. subtilis 168; assay: Growth on M9 glucose minimal agar with purine analogues, control strain; conditions: 48 h at 34° C.
Procedure: (§2) The pYDHL3, pYDHL4 plasmids and the pMWMX1 vector were used to transform wild-type B. subtilis strain 168 via standard techniques. Transformants were selected on L-broth agar plates with 10 μg/ml erythromycin. Thus, the strains B. subtilis 168(pMWMX1), B. subtilis 168(pYDHL3) and B. subtilis 168(pYDHL4) were obtained. Then, the ability of these strains to grow in the presence of purine base analogues was determined on M9 glucose minimal agar plates (minimal medium M9, glucose-2%, vitamin assay casamino acids (Difco)—0.1%, tryptophan—100 μg/ml) containing graded concentrations of a purine analogue. The plates were spotted with 10^5 to 10^6 cells from an overnight culture grown on the above agar plates without the analogues. The growth was estimated after 48 h incubation at 34° C.

[4] = tested on: B. subtilis 168(pYDHL4); assay: Growth on M9 glucose minimal agar with purine analogues, ydhLBa-amplified strain; conditions: 48 h at 34° C. Further: key: +: good growth; −: no growth.
Procedure: as §2

[5] = tested on: B. subtilis 168(pYDHL3); assay: Growth on M9 glucose minimal agar with purine analogues, ydhLBs-amplified strain; conditions: 48 h at 34° C. Further: key: +: good growth; −: no growth.
Procedure: as §2

[6] = tested on: E. coli deoD gsk3 (pMW118); assay: Growth on minimal medium with inosine or guanosine, vector control strain; further: key: +: good growth; −: no growth
Procedure: as §1
(§3) The pYDHL1 plasmid and the pMW118 vector were also transformed into the E. coli strain TG1 deoD gsk3. The E. coli strain TG1 deoD gsk3 was an especially constructed parental strain which is used for checking the resistance to inosine and guanosine. This strain was obtained by sequential introduction of a deoD mutation, as described in PCT application WO9903988 and gsk3 mutation described by Petersen C. (J. Biol. Chem., 274, 5348-5356, 1999) using phage P1-mediated transduction into the known strain TG1 (VKPM B-5837), which is resistant to inosine and guanosine due to its ability to degrade purine. The strain TG1 deoD gsk3 cannot degrade guanosine and inosine due to a deoD mutation (WO9903988), and it is sensitive to nucleosides due to a gsk3 mutation (Petersen C. J. Biol. Chem., 274, 5348-5356, 1999). Thus, the strains TG1 deoD gsk3 (pYDHL1) and TG1 deoD gsk3 (pMW118) were obtained. Then the ability of these strains to grow in the presence of inosine and guanosine was determined as above.

[7] = tested on: E. coli deoD gsk3 (pYDHL1); assay: Growth on minimal medium with inosine or guanosine, ydhL-amplified strain; conditions: for Resistance conferred by ydhL gene overexpression: summary in words of Table 2, pYDHL1 versus pMW118; on Growth on the minimal medium containing Guanosine 10 mg/l: key: +: good growth; −: no growth; on Growth on the minimal medium containing Guanosine 15 mg/l: key: +: good growth; −: no growth; on Growth on the minimal medium containing Inosine 1000 mg/l: key: +: good growth; −: no growth; on Growth on the minimal medium containing Inosine 300 mg/l: key: +: good growth; −: no growth
Procedure: as §1, §3

Q: With `Nc1ncnc2nn[nH]c12` [AzaA, 8-azaadenine] as the compound, how does the “Growth on the minimal medium containing AzaA, 300 μg/ml” value ([1]; AzaA 300 μg/ml) read?
A: −

Q: What about the “Growth on the minimal medium containing AzaA, 300 μg/ml” value ([2]; AzaA 300 μg/ml) of the same compound?
A: +

Q: What about the “Growth on the minimal medium containing AzaA, 2 mg/ml” value ([3]; AzaA 2 mg/ml) of the same compound?
A: −

Q: What about the “Growth on the minimal medium containing AzaA, 2 mg/ml” value ([4]; AzaA 2 mg/ml) of the same compound?
A: +

Q: For `Nc1nc2nn[nH]c2c(=O)[nH]1` [AzaG, 8-azaguanine], which “Growth on the minimal medium containing AzaG, 2 μg/ml” value (“Growth … 2 μg/ml” below) ([3]; AzaG 2 μg/ml) is on record?
A: −

Q: What about the “Growth on the minimal medium containing AzaG, 10 μg/ml” value ([3]; AzaG 10 μg/ml) of the same compound?
A: −

Q: And the “Growth … 2 μg/ml” value ([5]; AzaG 2 μg/ml)?
A: +

Q: What about the “Growth … 2 μg/ml” value ([4]; AzaG 2 μg/ml) of the same compound?
A: +

Q: What about the “Growth on the minimal medium containing AzaG, 10 μg/ml” value ([4]; AzaG 10 μg/ml) of the same compound?
A: +

Q: Which results are given for `Nc1nc(N)c2[nH]cnc2n1` [DAP, 2,6-diaminopurine]?
A: Growth on the minimal medium containing DAP, 400 μg/ml ([1]; DAP 400 μg/ml): −; Growth on the minimal medium containing DAP, 400 μg/ml ([2]; DAP 400 μg/ml): +

Q: How did the “Growth on the minimal medium containing Guanosine 10 mg/l” value ([6]; guanosine 10 mg/l) turn out when `Nc1nc2c(ncn2[C@@H]2O[C@H](CO)[C@@H](O)[C@H]2O)c(=O)[nH]1` [Guanosine] was run?
A: −

Q: What about the “Growth on the minimal medium containing Guanosine 15 mg/l” value ([6]; guanosine 15 mg/l) of the same compound?
A: −

Q: What about the “Growth on the minimal medium containing Guanosine 10 mg/l” value ([7]; guanosine 10 mg/l, E. coli deoD gsk3 (pYDHL1)) of the same compound?
A: +

Q: And the “Growth on the minimal medium containing Guanosine 15 mg/l” value ([7]; guanosine 15 mg/l, E. coli deoD gsk3 (pYDHL1))?
A: −

Q: What about the “Resistance conferred by ydhL gene overexpression” value [7] of the same compound?
A: low-level resistance

Q: What does the source list for `OC[C@H]1O[C@@H](n2cnc3c(O)ncnc32)[C@H](O)[C@@H]1O` [Inosine]?
A: Growth on the minimal medium containing Inosine 300 mg/l ([6]; inosine 300 mg/l): −; Growth on the minimal medium containing Inosine 1000 mg/l ([6]; inosine 1000 mg/l): −; Growth on the minimal medium containing Inosine 300 mg/l ([7]; inosine 300 mg/l, E. coli deoD gsk3 (pYDHL1)): +; Growth on the minimal medium containing Inosine 1000 mg/l ([7]; inosine 1000 mg/l, E. coli deoD gsk3 (pYDHL1)): +; Resistance conferred by ydhL gene overexpression [7]: high-level resistance

Q: With `Sc1ncnc2nc[nH]c12` [MP, 6-mercaptopurine] as the compound, how does the “Growth on the minimal medium containing MP, 400 μg/ml” value ([1]; MP 400 μg/ml) read?
A: −

Q: And the “Growth on the minimal medium containing MP, 400 μg/ml” value ([2]; MP 400 μg/ml)?
A: +

Q: Which “Growth on the minimal medium containing MePur, 20 μg/ml” value (from here on “Growth … 20 μg/ml”) ([3]; MePur 20 μg/ml) does the source give for `Cc1ncnc2nc[nH]c12` [MePur, 6-methylpurine] here?
A: −

Q: What about the “Growth … 20 μg/ml” value ([5]; MePur 20 μg/ml) of the same compound?
A: +

Q: What about the “Growth … 20 μg/ml” value ([4]; MePur 20 μg/ml) of the same compound?
A: +
